Results: PMC5700983 (Nature Communications, 2017)
Like-named read-outs stand apart in the source and are kept apart here.

How the values were obtained:
[1] = molecular target: Ps_PtxB (Stutzerimonas stutzeri, UniProt O69052); assay: biochemical; format: binding, Pseudomonas stutzeri WM88
[2] = molecular target: Ec_PhnD; conditions: cited from earlier work
[3] = molecular target: T1, Te_PtxB (Trichodesmium erythraeum, UniProt Q119I9); assay: biochemical; format: binding, Trichodesmium erythraeum IMS101
[4] = molecular target: Pm_PhnD (Prochlorococcus marinus, UniProt A3PC74); assay: biochemical; format: binding, Prochlorococcus marinus MIT9301
[5] = system: Te_PtxB, Pm_PhnD and Ps_PtxB; format: binding
[6] = system: E. coli strain devoid of its native phosphate acquisition systems; conditions: cited from earlier work
[7] = molecular target: T2, Te_PtxB Y208F (Trichodesmium erythraeum, UniProt Q119I9, Y234F); assay: biochemical
[8] = molecular target: Te_PtxB Y208A (Trichodesmium erythraeum, UniProt Q119I9, Y234A); assay: biochemical
[9] = molecular target: T3, HtxB (Stutzerimonas stutzeri, UniProt O69061); conditions: pH 7.4
[10] = system: E. coli strain devoid of its native phosphate acquisition systems; conditions: cited from earlier work; remark: listed apart in the source
[11] = molecular target: T2, Te_PtxB Y208F
[12] = molecular target: T1, Te_PtxB; assay: biochemical
[13] = molecular target: T3, HtxB; assay: biochemical
[14] = molecular target: Pm_PtxB; conditions: cited from earlier work

Chain of Te_PtxB Y208A (Q119I9 28-298 Y234A limits assumed): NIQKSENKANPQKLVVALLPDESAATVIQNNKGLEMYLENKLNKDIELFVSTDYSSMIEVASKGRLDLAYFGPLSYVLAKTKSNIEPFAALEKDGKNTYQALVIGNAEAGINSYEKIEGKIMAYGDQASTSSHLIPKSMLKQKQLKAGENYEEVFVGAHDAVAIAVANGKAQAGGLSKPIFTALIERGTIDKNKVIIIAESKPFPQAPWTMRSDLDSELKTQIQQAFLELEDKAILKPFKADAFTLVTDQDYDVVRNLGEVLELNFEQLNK
T2 sequence (Q119I9 28-298 Y234F limits assumed): as the sequence (Q119I9 28-298 Y234A limits assumed) above, with A207F counted along it
T1 sequence (Q119I9 28-298 limits assumed): as the sequence (Q119I9 28-298 Y234A limits assumed) above, with A207Y counted along it
Chain of Pm_PhnD (A3PC74 25-297): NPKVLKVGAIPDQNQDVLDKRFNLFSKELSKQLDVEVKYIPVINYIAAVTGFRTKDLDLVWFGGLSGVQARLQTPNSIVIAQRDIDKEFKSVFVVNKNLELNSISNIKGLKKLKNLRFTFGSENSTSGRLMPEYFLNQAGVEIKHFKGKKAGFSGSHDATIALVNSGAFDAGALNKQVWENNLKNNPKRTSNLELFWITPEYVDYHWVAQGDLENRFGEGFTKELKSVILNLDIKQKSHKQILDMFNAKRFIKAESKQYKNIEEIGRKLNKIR
Chain of Ps_PtxB (O69052 24-287): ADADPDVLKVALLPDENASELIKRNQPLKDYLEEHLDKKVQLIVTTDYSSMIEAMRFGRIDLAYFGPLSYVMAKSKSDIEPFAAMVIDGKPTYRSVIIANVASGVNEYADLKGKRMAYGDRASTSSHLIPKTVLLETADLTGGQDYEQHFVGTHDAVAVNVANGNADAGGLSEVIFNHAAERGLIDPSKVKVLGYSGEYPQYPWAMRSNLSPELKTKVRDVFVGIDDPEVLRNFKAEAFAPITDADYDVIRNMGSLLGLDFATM
T3 sequence (O69061 34-298): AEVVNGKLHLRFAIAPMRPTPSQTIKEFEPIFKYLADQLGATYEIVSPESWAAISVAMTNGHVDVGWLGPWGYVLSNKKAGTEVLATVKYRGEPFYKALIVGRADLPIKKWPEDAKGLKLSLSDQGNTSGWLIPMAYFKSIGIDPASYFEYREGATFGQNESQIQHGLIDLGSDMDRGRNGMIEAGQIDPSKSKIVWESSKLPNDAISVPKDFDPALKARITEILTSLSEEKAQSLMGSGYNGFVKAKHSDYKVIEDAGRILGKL

NCCP(=O)(O)O [2-Aminoethylphosphonate, 2-aminoethylphosphonate]
K d, Ps_PtxB ([1]; pH 7.4): NBD | binding affinity for Ec_PhnD, in words [2]: low nanomolar | K d, Te_PtxB ([3]; pH 7.4): NBD | K d, Pm_PhnD ([4]; pH 7.4): NBD | binding, result in words [5]: None of the proteins showed any evidence of binding

O=P(O)(O)O [Phosphate]
growth of E. coli strain with HtxBCDE [6]: did not allow growth | Kd [1]: 159 ± 36 µM | Kd [7]: > 60000 µM | Kd [8]: 51.3 ± 1.76 µM | K d, HtxB [9]: NBD | growth of E. coli strain with PtxD and Ralstonia sp. 4506 PtxABC [10]: grew | binding to Te_PtxB Y208F, result in words [11]: essentially abolished

O=[PH](O)O [Phosphite, phosphite]
growth of E. coli strain with HtxBCDE [6]: did allow growth | Kd [1]: 0.24 ± 0.03 µM | Kd ([7]; K d, Te_PtxB Y208F): 295 ± 4.64 µM | Kd ([7]; Kd, Te_PtxB Y208F (as quoted in peer review file)): 295 µM | Kd [12]: 0.289 ± 0.064 µM | Kd [13]: > 10000 µM | Kd ([8]; K d, Te_PtxB Y208A): 134 ± 6.4 µM | Kd ([8]; Kd, Te_PtxB Y208A (as quoted in peer review file)): 135 µM | binding affinity for Pm_PtxB, in words [14]: low micromolar | higher binding affinity for phosphite than phosphate and phosphonates, Te_PtxB [3]: 2–4 orders of magnitude | Kd ([3]; K d, Te_PtxB): 0.17 ± 0.07 µM | Kd ([3]; Kd, PtxB (approximate, authors' response)): ~0.17 µM | Kd ([3]; Kd, Te_PtxB WT (as quoted in peer review file)): 0.17 µM | growth of E. coli strain with PtxD and Ralstonia sp. 4506 PtxABC [10]: grew | Kd [4]: 0.051 ± 0.004 µM | higher binding affinity for phosphite than phosphate and phosphonates, Pm_PhnD [4]: 2–4 orders of magnitude | Kd ([5]; read-out: K d range over Te_PtxB, Pm_PhnD and Ps_PtxB): 0.05 to 0.24 µM
